Values belong to the compound of their own block, whether it stands above or below them. The source made the active and inactive calls. The calls are words filed in the database; no cut-off is given here.
Columns and labels:
[1] = Half life in Wistar rat at 10 mg/kg, po by cassette dosing; assay type: ADME, organism-based; design: dose 10 mg/kg, route oral; conditions: in vivo, read-out: beta t1/2 (converted)
[2] = Cmax in Wistar rat at 10 mg/kg, po by cassette dosing; assay type: ADME, organism-based; design: dose 10 mg/kg, route oral; conditions: in vivo
Rattus norvegicus [3] = assay: AUC (0 to Tlast) life in Wistar rat at 10 mg/kg, po by cassette dosing; assay type: ADME, organism-based, Plasma; design: dose 10 mg/kg, route oral; conditions: in vivo
Rattus norvegicus [4] = assay: Tlast in Wistar rat at 10 mg/kg, po by cassette dosing; assay type: ADME, organism-based; design: dose 10 mg/kg, route oral; conditions: in vivo
Rattus norvegicus [5] = assay: Clast in Wistar rat at 10 mg/kg, po by cassette dosing; assay type: ADME, organism-based; design: dose 10 mg/kg, route oral; conditions: in vivo
[6] = Tmax in Wistar rat at 10 mg/kg, po by cassette dosing; assay type: ADME, organism-based; design: dose 10 mg/kg, route oral; conditions: in vivo
[7] = target: T1, Estrogen receptor (Homo sapiens) (UniProt P03372); assay: Displacement of [2,4,6,7-3H]17beta-estradiol from human recombinant ERalpha receptor relative to 17-beta-estradiol
T1 sequence (whole entry): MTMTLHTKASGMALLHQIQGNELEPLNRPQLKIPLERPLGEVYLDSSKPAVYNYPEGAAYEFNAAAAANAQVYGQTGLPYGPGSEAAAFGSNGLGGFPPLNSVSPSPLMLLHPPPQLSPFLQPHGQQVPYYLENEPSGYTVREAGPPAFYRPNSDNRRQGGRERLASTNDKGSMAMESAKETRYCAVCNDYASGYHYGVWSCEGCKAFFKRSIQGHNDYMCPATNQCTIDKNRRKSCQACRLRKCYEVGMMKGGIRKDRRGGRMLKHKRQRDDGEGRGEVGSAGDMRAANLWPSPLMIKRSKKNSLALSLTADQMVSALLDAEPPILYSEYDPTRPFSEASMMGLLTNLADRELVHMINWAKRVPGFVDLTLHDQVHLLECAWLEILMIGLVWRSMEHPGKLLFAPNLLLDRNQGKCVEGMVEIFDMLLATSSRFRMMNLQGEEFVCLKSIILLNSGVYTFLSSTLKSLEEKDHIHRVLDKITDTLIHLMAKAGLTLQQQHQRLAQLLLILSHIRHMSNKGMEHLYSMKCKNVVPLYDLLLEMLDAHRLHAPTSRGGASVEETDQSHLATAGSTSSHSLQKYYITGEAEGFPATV

in vitro [8] = conditions: human, Caco-2
Description: Apparent permeability across human Caco-2 cells at 50 uM

[9] = target: Estrogen receptor beta (Homo sapiens) (UniProt Q92731); assay: Displacement of [2,4,6,7-3H]17beta-estradiol from human recombinant ERbeta receptor relative to 17-beta-estradiol
[10] = target: T2, 17-beta-hydroxysteroid dehydrogenase type 1 (Homo sapiens) (UniProt P14061); assay: (§1) Inhibition of human placental cytosolic 17beta-HSD1
T2 sequence (whole entry): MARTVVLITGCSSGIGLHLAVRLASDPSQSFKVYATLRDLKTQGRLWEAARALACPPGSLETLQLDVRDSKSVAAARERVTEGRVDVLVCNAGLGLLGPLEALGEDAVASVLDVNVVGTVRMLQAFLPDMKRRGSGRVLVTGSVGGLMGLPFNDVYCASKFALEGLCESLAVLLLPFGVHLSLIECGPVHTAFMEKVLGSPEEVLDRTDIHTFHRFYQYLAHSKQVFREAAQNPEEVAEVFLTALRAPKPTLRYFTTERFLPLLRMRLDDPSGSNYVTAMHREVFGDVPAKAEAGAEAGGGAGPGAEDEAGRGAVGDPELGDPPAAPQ

T47D = assay: Estrogenic activity in human ER expressing T47D cells assessed as stimulation of cell proliferation at 100 nM by MTT assay; assay type: functional, cell-based
[11] = target: T3, 17-beta-hydroxysteroid dehydrogenase type 1 (Homo sapiens, UniProt P14061); assay: as §1
T3 sequence (P14061 whole entry): T2 sequence (whole entry)

in vitro [12] = conditions: Sprague-Dawley, rat, liver microsomes
Cytochrome P450 2C19 = Cytochrome P450 2C19 (Homo sapiens, UniProt P33261); assay: Inhibition of human hepatic CYP2C19; assay type: ADME
in vitro [13] = conditions: Sprague-Dawley, rat, liver microsomes; remark: listed apart in the source
Cytochrome P450 2B6 = target: T4, Cytochrome P450 2B6 (Homo sapiens, UniProt P20813); assay: Inhibition of human hepatic CYP2B6; assay type: ADME
T4 sequence (P20813 whole entry): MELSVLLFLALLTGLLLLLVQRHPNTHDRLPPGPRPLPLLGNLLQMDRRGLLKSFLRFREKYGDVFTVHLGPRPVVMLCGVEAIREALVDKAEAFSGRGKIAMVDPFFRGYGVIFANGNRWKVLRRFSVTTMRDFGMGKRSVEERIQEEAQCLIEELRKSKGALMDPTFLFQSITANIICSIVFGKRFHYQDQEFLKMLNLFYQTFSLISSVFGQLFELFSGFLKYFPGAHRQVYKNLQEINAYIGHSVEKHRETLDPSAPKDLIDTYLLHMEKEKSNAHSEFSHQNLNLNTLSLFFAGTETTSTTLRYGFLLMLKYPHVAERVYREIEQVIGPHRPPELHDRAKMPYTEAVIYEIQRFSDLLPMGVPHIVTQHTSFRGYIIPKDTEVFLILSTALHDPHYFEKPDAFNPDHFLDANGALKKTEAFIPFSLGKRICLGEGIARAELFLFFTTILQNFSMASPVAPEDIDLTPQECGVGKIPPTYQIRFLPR

Cytochrome P450 2D6 = Cytochrome P450 2D6 (Homo sapiens, UniProt P10635); assay: Inhibition of human hepatic CYP2D6; assay type: ADME
Cytochrome P450 1A2 = target: T5, Cytochrome P450 1A2 (Homo sapiens, UniProt P05177); assay: Inhibition of human hepatic CYP1A2; assay type: ADME
T5 sequence (P05177 whole entry): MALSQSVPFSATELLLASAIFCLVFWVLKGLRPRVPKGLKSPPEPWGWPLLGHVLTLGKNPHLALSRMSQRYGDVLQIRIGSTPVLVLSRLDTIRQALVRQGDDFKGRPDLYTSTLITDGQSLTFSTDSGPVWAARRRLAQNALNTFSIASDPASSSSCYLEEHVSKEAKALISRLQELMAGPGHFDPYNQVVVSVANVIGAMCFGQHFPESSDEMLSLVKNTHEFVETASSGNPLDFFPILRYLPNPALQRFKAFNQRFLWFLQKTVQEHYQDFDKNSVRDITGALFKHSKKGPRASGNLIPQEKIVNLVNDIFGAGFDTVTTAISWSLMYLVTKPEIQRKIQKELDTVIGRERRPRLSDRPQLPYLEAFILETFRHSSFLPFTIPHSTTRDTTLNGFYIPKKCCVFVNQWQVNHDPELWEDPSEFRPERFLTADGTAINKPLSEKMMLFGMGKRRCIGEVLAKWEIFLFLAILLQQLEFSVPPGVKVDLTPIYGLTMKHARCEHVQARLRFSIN

Cytochrome P450 3A4 = Cytochrome P450 3A4 (Homo sapiens, UniProt P08684); assay: Inhibition of human hepatic CYP3A4
[14] = target: T6, 17-beta-hydroxysteroid dehydrogenase type 2 (Homo sapiens, UniProt P37059); assay: Inhibition of human placental microsomal 17beta-HSD2
T6 sequence (P37059 whole entry): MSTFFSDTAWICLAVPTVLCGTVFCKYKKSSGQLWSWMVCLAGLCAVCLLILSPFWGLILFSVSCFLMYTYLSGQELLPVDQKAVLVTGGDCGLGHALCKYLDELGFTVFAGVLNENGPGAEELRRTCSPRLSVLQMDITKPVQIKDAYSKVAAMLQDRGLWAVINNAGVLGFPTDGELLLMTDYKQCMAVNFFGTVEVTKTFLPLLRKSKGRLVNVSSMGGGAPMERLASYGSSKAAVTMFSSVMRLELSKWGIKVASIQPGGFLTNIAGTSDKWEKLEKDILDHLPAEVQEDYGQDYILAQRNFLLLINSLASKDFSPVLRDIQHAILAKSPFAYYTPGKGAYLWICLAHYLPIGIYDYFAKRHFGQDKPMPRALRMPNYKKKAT

Cytochrome P450 2C9 = Cytochrome P450 2C9 (Homo sapiens, UniProt P11712); assay: Inhibition of human hepatic CYP2C9; assay type: ADME
Sequence of Cytochrome P450 2C9 (P11712 whole entry): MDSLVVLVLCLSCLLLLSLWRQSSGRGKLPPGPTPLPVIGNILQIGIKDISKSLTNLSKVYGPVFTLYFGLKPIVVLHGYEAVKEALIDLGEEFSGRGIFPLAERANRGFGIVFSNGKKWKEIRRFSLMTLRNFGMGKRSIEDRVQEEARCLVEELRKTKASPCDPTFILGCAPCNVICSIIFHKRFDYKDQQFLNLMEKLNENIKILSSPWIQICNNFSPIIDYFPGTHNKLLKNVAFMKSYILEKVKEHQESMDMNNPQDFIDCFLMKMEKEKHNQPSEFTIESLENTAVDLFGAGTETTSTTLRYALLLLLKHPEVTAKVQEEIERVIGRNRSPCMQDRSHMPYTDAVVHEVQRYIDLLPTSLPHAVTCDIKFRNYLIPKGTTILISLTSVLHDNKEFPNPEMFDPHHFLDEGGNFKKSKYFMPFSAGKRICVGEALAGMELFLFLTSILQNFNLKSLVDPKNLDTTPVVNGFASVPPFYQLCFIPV

Sequence of Estrogen receptor beta (Homo sapiens) (Q92731 whole entry): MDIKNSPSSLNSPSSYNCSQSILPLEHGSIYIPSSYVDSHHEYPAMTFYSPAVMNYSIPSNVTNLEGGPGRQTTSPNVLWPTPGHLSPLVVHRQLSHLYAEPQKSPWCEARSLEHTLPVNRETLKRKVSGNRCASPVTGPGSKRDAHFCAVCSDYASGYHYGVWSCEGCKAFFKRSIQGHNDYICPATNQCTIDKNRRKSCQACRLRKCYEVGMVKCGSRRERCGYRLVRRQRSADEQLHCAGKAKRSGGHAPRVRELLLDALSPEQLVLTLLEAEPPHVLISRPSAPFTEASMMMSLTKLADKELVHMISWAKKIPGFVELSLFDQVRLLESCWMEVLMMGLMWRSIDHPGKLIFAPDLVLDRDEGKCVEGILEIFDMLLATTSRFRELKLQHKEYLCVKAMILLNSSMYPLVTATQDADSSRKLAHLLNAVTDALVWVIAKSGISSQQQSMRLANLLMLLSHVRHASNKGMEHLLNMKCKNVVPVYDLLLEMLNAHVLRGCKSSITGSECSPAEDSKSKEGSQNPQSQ
Sequence of Cytochrome P450 2C19 (P33261 whole entry): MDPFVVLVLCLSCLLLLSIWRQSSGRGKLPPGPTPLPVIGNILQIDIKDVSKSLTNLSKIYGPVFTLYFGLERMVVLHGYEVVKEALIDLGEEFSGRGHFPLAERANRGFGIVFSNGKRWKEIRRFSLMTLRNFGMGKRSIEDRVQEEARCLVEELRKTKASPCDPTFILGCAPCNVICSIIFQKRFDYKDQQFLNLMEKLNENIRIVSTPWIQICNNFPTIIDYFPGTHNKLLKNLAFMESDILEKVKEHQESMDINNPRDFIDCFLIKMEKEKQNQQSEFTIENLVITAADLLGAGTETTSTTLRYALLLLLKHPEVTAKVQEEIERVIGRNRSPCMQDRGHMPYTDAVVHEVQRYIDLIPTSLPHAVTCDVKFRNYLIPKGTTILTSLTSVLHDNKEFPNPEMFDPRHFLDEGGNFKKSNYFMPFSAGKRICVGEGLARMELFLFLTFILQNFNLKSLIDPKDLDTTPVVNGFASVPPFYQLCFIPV
Sequence of Cytochrome P450 2D6 (P10635 whole entry): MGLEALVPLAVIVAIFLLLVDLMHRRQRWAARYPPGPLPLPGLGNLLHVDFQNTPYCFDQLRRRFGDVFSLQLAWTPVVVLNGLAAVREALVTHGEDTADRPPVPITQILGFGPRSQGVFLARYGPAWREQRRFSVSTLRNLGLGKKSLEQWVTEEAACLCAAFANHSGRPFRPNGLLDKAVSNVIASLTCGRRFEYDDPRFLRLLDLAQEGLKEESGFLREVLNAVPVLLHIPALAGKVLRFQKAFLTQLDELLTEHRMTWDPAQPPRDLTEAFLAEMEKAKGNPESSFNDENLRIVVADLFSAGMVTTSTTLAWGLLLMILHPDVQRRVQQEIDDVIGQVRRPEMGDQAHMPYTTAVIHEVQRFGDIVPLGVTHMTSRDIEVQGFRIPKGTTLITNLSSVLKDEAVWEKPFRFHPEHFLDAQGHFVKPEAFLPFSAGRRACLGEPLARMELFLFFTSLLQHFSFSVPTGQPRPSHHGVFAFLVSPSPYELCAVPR
Sequence of Cytochrome P450 3A4 (P08684 whole entry): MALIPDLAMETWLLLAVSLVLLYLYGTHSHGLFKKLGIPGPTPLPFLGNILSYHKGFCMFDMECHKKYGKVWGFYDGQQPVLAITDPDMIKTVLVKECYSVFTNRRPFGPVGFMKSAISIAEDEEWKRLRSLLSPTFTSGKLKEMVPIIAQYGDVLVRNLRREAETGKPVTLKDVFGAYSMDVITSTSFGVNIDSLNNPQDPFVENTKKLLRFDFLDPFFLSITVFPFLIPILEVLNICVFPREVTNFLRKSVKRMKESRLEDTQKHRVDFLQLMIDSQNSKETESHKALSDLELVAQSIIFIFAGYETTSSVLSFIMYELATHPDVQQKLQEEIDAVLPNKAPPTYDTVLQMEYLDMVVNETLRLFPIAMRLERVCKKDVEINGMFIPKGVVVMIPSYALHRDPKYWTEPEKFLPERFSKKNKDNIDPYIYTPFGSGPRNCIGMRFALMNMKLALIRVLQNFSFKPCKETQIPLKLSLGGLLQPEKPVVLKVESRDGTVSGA

- half-life [1]: 90 min
- Cmax [2]: 7.8 ng/mL
- AUC (Rattus norvegicus [3]): 99.2 ng·h/mL
- tz (Rattus norvegicus [4]): 10 h
- Cz (Rattus norvegicus [5]): 6.6 ng/mL
- Tmax [6]: 480 min
- RBA [7]: < 0.01%
- Papp at 50 µM (in vitro [8]): 7.8 ×10⁻⁶ cm/s
- RBA [9]: 0.01%
Structure (SMILES): Oc1ccc(-c2cnc(-c3cccc(O)c3)s2)cc1

- Activity [10]: inactive
Structure (SMILES): Oc1ccc(-c2ccc(-c3ccccc3)s2)cc1

- RBA [7]: 0.01%
- RBA [9]: < 0.01%
Structure (SMILES): Oc1cccc(-c2ccc(-c3cccc(O)c3)nc2)c1

Structure (SMILES): Oc1cccc(-c2ccc(-c3cccc(O)c3)[se]2)c1
- Activity [10]: inactive

- Activity [10]: inactive
Structure (SMILES): Cn1nc(-c2ccc(O)cc2)nc1-c1ccc(O)cc1

- Papp at 50 µM (in vitro [8]): 22 ×10⁻⁶ cm/s
- IC50 [11]: 69 nM
Structure (SMILES): Oc1ccc(-c2ccc(-c3cccc(O)c3)s2)cc1
- Activity (T47D): inactive

- Activity [10]: inactive
Structure (SMILES): Oc1ccc(-c2ccc(-c3ccc(O)cc3)s2)cc1

- Activity [10]: inactive
Structure (SMILES): Oc1ccc(-c2csc(-c3ccc(O)cc3)n2)cc1

- IC50 [11]: > 5000 nM
Structure (SMILES): Oc1cccc(-c2cn(-c3cccc(O)c3)nn2)c1

- IC50 [11]: > 1000 nM
Structure (SMILES): Oc1ccc(-c2ncc(-c3cccc(O)c3)s2)cc1

- Activity [10]: inactive
Structure (SMILES): Cn1nc(-c2cccc(O)c2)nc1-c1cccc(O)c1

- IC50 [11]: 336 nM
Structure (SMILES): Oc1cccc(-c2nnc(-c3cccc(O)c3)s2)c1

- half-life at 1 µM (in vitro [12]): 12.6 min
- IC50 (Cytochrome P450 2C19): > 4000 nM
- microsomal CLint at 1 µM (in vitro [13]): 367 µL/min/mg
- IC50 (Cytochrome P450 2B6): > 4000 nM
- IC50 (Cytochrome P450 2D6): > 4000 nM
- IC50 (Cytochrome P450 1A2): > 4000 nM
- IC50 [11]: 243 nM
Structure (SMILES): Oc1cccc(-c2cnc(-c3cccc(O)c3)s2)c1
- Activity (T47D): inactive

- Activity [10]: inactive
Structure (SMILES): Oc1ccc(-c2cnc(-c3ccc(O)cc3)s2)cc1

- IC50 [11]: 185 nM
Structure (SMILES): Oc1cccc(-c2csc(-c3cccc(O)c3)c2)c1

- half-life at 1 µM (in vitro [12]): 22.7 min
- IC50 (Cytochrome P450 2C19): > 4000 nM
- IC50 (Cytochrome P450 3A4): 2100 nM
- microsomal CLint at 1 µM (in vitro [13]): 203 µL/min/mg
- IC50 [14]: 2260 nM
- IC50 (Cytochrome P450 2B6): > 4000 nM
- IC50 (Cytochrome P450 2C9): 1900 nM
- RBA [7]: < 0.001%
- IC50 (Cytochrome P450 2D6): > 4000 nM
- IC50 (Cytochrome P450 1A2): > 4000 nM
- Papp at 50 µM (in vitro [8]): 12.5 ×10⁻⁶ cm/s
- IC50 [11]: 173 nM
- RBA [9]: 0.01%
Structure (SMILES): Oc1cccc(-c2ccc(-c3cccc(O)c3)cc2)c1
- Activity (T47D): inactive

- IC50 [11]: 413 nM
Structure (SMILES): Oc1ccc(-c2nsc(-c3cccc(O)c3)n2)cc1
- Activity (T47D): inactive

- Activity [10]: inactive
Structure (SMILES): Oc1cccc(-c2cccs2)c1

Structure (SMILES): Oc1ccc(-c2ccc(-c3ccc(O)cc3)[se]2)cc1
- Activity [10]: inactive

— ChEMBL document CHEMBL1142534, “Design, synthesis, biological evaluation and pharmacokinetics of bis(hydroxyphenyl) substituted azoles, thiophenes, benzenes, and aza-benzenes as potent and selective nonsteroidal inhibitors of 17beta-hydroxysteroid dehydrogenase type 1 (17beta-HSD1)” (J Med Chem, 2008)
